Test results published in ChEMBL document CHEMBL5380841, “Discovery and Binding Mechanism of Pyrazoloisoquinoline-Based Novel β-Arrestin Inverse Agonists of the Kappa-Opioid Receptor” (J Med Chem, 2023).
Activity calls are given as the source filed them. The calls are words filed in the database; no cut-off is given here.

Assays:
[1] = Permeability of the compound across blood brain barrier at pH 7.4 at 50 uM incubated for 4 hrs by PAMPA assay; assay type: ADME; conditions: read-out: permeability
[2] = biological target: Mu-type opioid receptor (Homo sapiens) (UniProt P35372); assay: Inverse agonist activity at MOR (unknown origin) expressed in HEK293T cells assessed as beta arrestin-2 recruitment upto 10 uM incubated for 20 mins by NanoBiT assay; assay type: functional, cell-based
Sequence of Mu-type opioid receptor (Homo sapiens) (P35372 whole entry): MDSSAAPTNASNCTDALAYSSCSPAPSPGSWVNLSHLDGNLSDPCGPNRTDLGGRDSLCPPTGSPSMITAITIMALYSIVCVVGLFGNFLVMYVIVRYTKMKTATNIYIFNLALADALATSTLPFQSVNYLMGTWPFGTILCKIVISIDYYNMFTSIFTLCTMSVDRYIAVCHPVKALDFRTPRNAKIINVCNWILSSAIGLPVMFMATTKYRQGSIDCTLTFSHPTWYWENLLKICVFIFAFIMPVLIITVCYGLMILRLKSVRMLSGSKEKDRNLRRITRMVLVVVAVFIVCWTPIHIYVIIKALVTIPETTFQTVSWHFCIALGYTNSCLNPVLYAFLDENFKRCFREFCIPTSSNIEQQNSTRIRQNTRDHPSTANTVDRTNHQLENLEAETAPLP

[3] = biological target: T1, Kappa-type opioid receptor (Homo sapiens, UniProt P41145); assay: Inverse agonist activity at human KOR expressed in human HTLA cells assessed as beta arrestin-2 recruitment by ONE-Glo luciferase assay; assay type: functional, cell-based
T1 sequence (P41145 whole entry): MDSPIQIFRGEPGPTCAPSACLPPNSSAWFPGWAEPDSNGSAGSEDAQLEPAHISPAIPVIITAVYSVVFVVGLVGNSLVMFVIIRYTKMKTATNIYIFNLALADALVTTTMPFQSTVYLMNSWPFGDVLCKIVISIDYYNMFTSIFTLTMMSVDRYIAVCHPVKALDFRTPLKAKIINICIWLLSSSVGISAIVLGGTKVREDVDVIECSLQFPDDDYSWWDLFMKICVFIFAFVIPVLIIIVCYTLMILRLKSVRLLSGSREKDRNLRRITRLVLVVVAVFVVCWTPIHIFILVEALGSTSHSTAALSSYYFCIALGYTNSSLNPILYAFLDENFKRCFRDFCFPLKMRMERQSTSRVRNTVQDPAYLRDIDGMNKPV

[4] = biological target: T1, Kappa-type opioid receptor; assay: Inverse agonist activity at human KOR expressed in human HTLA cells assessed as beta arrestin-2 recruitment at 10 uM by ONE-Glo luciferase assay relative to 1-(5-(2-Chlorophenyl)-7,8-dimethoxy-3-(3-methoxybenzyl)-3H-pyrazolo(3,4-c)isoquinolin-1-yl)-N-(3-methoxybenzyl)-methanamine; assay type: functional, cell-based
[5] = biological target: T1, Kappa-type opioid receptor; assay: Inverse agonist activity at human KOR expressed in human HTLA cells assessed as beta arrestin-2 recruitment upto 10 uM by ONE-Glo luciferase assay; assay type: functional, cell-based
[6] = biological target: T1, Kappa-type opioid receptor; assay: Inverse agonist activity at human KOR assessed as cAMP inhibition pretreated for 5 mins followed by forskolin treatment measured after 15 mins by Glo-Sensor cAMP cell based assay; assay type: functional; conditions: time 20.0 min
[7] = biological target: Mu-type opioid receptor (Homo sapiens) (UniProt P35372); assay: Inverse agonist activity at human MOR assessed as cAMP inhibition pretreated for 5 mins followed by forskolin treatment measured after 15 mins by Glo-Sensor cAMP cell based assay; assay type: functional; conditions: time 20.0 min
[8] = biological target: T2, Delta-type opioid receptor (Homo sapiens, UniProt P41143); assay: Inverse agonist activity at human DOR assessed as cAMP inhibition pretreated for 5 mins followed by forskolin treatment measured after 15 mins by Glo-Sensor cAMP cell based assay; assay type: functional; conditions: time 20.0 min
T2 sequence (P41143 whole entry): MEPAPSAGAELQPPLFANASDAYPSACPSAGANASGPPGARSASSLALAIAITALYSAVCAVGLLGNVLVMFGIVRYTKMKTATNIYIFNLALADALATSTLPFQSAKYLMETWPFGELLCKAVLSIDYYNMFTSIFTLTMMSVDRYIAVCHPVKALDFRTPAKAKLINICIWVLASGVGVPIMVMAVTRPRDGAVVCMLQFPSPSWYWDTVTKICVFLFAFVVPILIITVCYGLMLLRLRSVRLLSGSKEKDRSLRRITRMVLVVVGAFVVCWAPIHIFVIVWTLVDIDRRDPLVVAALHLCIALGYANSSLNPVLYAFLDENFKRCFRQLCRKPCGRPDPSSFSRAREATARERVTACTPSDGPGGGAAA

[9] = biological target: T2, Delta-type opioid receptor; assay: Inverse agonist activity at human DOR expressed in human HTLA cells assessed as beta arrestin-2 recruitment by ONE-Glo luciferase assay; assay type: functional, cell-based
[10] = organism: Homo sapiens; assay: Selectivity ratio of EC50 for human DOR expressed in human HTLA cells assessed as beta arrestin-2 recruitment to EC50 for human KOR expressed in human HTLA cells assessed as beta arrestin-2 recruitment; assay type: cell-based
[11] = biological target: T1, Kappa-type opioid receptor; assay: Displacement of [3H]diprenorphine from human KOR expressed in HEK293 cells assessed as maximum inhibition at 10 uM incubated for 60 mins by liquid scintillation method relative to control; assay type: cell-based; conditions: filed as inverse agonist
[12] = biological target: T1, Kappa-type opioid receptor; assay: Displacement of [3H]diprenorphine from human KOR expressed in HEK293 cells incubated for 60 mins by liquid scintillation method; assay type: cell-based
[13] = biological target: Mu-type opioid receptor (Homo sapiens) (UniProt P35372); assay: Displacement of [3H]naltrindole from MOR (unknown origin) upto 1 uM by radioligand binding assay relative to control
[14] = biological target: T2, Delta-type opioid receptor; assay: Displacement of [3H]naltrindole from DOR (unknown origin) upto 1 uM by radioligand binding assay relative to control
[15] = biological target: T1, Kappa-type opioid receptor; assay: Displacement of [3H]diprenorphine from human KOR expressed in HEK293 cells assessed as inhibition constant incubated for 60 mins by liquid scintillation method; assay type: cell-based

| Compound | Activity [2] | EC50 [3] [nM] | Emax [4] [%] | further results |
| --- | --- | --- | --- | --- |
| CC(=O)[C@H]1CC[C@H]2[C@@H]3CCC4=CC(=O)CC[C@]4(C)[C@H]3CC[C@]12C [PROGESTERONE] |  |  |  | Papp at 4 h, 50 µM [1]: 37.8 ×10⁻⁶ cm/s |
| COc1cccc(Cn2nc(CNCc3ccc(OC)c(OC)c3)c3c4cc(OC)c(OC)cc4c(-c4ccccc4Cl)nc32)c1 | inactive | 643 | -103 |  |
| COc1cccc(CNCc2nn(Cc3cccc(OC)c3)c3ncc4cc(OC)c(OC)cc4c23)c1 | inactive |  |  | Activity [5]: inactive; Activity [4]: inactive |
| COc1cccc(CNCc2nn(Cc3cccc(OC)c3)c3nc(-c4ccccc4Cl)c4cc(OC)c(OC)cc4c23)c1 | inactive | 127 |  | Activity [6]: inactive; Activity [7]: inactive; Activity [8]: inactive; EC50 [9]: 483 nM |
| COc1cccc(CNCc2n[nH]c3nc(-c4ccccc4Cl)c4cc(OC)c(OC)cc4c23)c1 | inactive |  |  | Activity [5]: inactive; Activity [4]: inactive |
| COc1cccc(Cn2nc(CNc3ccc4ccccc4c3)c3c4cc(OC)c(OC)cc4c(-c4ccccc4Cl)nc32)c1 | inactive |  |  | Activity [5]: inactive; Activity [4]: inactive |
| COc1cc2c(-c3ccccc3Cl)nc3c(c(CNCc4cccc(Oc5ccccc5)c4)nn3CC3CCNCC3)c2cc1OC | inactive | 2670 | -95.1 |  |
| O=C(Cc1ccc(Cl)c(Cl)c1)N1CCCC[C@H]1CN1CCCC1 |  | 10.5 | -100 |  |
| COc1cccc(Cn2nc(CNCc3cccc(Oc4ccccc4)c3)c3c4cc(OC)c(OC)cc4c(-c4ccccc4Cl)nc32)c1 | inactive | 9.1 | -100 | EC50 [9]: 49.5 nM; Ratio EC50 [10]: 5 |
| COc1cccc(Cn2nc(CNCc3ccc(Oc4ccccc4)cc3)c3c4cc(OC)c(OC)cc4c(-c4ccccc4Cl)nc32)c1 | inactive | 338 | -91.8 |  |
| COc1cccc(Cn2nc(CNCCc3ccc4ccccc4c3)c3c4cc(OC)c(OC)cc4c(-c4ccccc4Cl)nc32)c1 | inactive | 69.9 | -97.2 | EC50 [9]: 691 nM; Ratio EC50 [10]: 10 |
| COc1cccc(Cn2nc(CNCc3cc4ccccc4[nH]3)c3c4cc(OC)c(OC)cc4c(-c4ccccc4Cl)nc32)c1 | inactive | 339 | -98.3 |  |
| COc1cccc(Cn2nc(CNCCc3cccc(Oc4ccccc4)c3)c3c4cc(OC)c(OC)cc4c(-c4ccccc4Cl)nc32)c1 | inactive | 227 | -81.9 |  |
| COc1cccc(Cn2nc(CNCc3cccc4ccccc34)c3c4cc(OC)c(OC)cc4c(-c4ccccc4Cl)nc32)c1 | inactive | 430 | -96.7 |  |
| COc1cc2c(-c3ccccc3Cl)nc3c(c(CNCc4cccc(Oc5ccccc5)c4)nn3Cc3cccc(Cl)c3)c2cc1OC | inactive | 105 | -101 |  |
| COc1cccc(Cn2nc(CNc3cccc(OC)c3)c3c4cc(OC)c(OC)cc4c(-c4ccccc4Cl)nc32)c1 | inactive |  |  | Activity [5]: inactive; Activity [4]: inactive |
| COc1cccc(Cn2nc(CNCc3cccc(OCc4ccccc4)c3)c3c4cc(OC)c(OC)cc4c(-c4ccccc4Cl)nc32)c1 | inactive | 9.33 | -103 | Imax [11]: 72%; EC50 [9]: 207 nM; IC50 [12]: 250 nM; Ratio EC50 [10]: 22; inhibition [13]: 20%; inhibition [14]: 10%; Ki [15]: 100 nM |
| COc1cccc(Cn2nc(CNCc3ccc4ccccc4c3)c3c4cc(OC)c(OC)cc4c(-c4ccccc4Cl)nc32)c1 | inactive | 94.3 | -97.6 |  |
| COc1ccc(CNCc2nn(Cc3cccc(OC)c3)c3nc(-c4ccccc4Cl)c4cc(OC)c(OC)cc4c23)cc1 | inactive | 103 | -98.2 |  |
| COc1cc2c(-c3ccccc3Cl)nc3c(c(CNCc4cccc(Oc5ccccc5)c4)nn3CC3CCN(C(=O)OC(C)(C)C)CC3)c2cc1OC | inactive | 674 | -99.4 |  |
| COc1cccc(Cn2nc(CNCc3ccccc3Oc3ccccc3)c3c4cc(OC)c(OC)cc4c(-c4ccccc4Cl)nc32)c1 | inactive | 54.5 | -104 |  |
| COc1cccc(CCNCc2nn(Cc3cccc(OC)c3)c3nc(-c4ccccc4Cl)c4cc(OC)c(OC)cc4c23)c1 | inactive | 1060 | -72.8 |  |
| CNC(=C[N+](=O)[O-])NCCSCc1ccc(CN(C)C)o1.Cl [RANITIDINE HYDROCHLORIDE] |  |  |  | Papp at 4 h, 50 µM [1]: 0.12 ×10⁻⁶ cm/s |
